Molecules are shown by their SMILES.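 Grown in 96-well plates, cells were treated for 48 hours with each compound at five concentrations. Insufficient inhibition: endpoint recorded as highest concentration tested. The concentration for 50% growth inhibition is given as GI50. The concentration for full growth arrest is given as TGI.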 Where only a bound is given, the exact number is not on record here.

Test systems include NCI-H226 lung; LOX IMVI melanoma; PC-3 prostate; BT-549 breast; HS 578T breast; CAKI-1 renal; SNB-75 CNS; SW-620 colon; MDA-MB-231 breast; ACHN renal.
Experiment in all cases: DTP human tumour cell line panel, 48 h

Turning to `COc1cccc(N=Cc2cc3cc(Br)ccc3nc2Cl)c1`, the TGI in the test with NCI-H226 lung was 25.7 µM; with LOX IMVI melanoma, more than 50 µM; with PC-3 prostate, more than 50 µM; in the test with BT-549 breast it was more than 50 µM; with HS 578T breast it was more than 50 µM; with CAKI-1 renal, more than 50 µM. Further, the TGI with SNB-75 CNS and in the test on SW-620 colon was more than 50 µM throughout.

On to `CCSCCC(N)C(=O)O` (stereo not given), for which the total growth inhibition concentration (TGI) in the test on NCI-H226 lung, in the test with LOX IMVI melanoma, in the test on PC-3 prostate, in the test on BT-549 breast, in the test on HS 578T breast and with SNB-75 CNS was more than 100 µM throughout. The TGI in the test on MDA-MB-231 breast, with SW-620 colon and in the test with ACHN renal was more than 100 µM in each case.

Consider `CCOC(=O)c1nc2ccc(Cl)cc2c2c1Cc1ccccc1-2`, for which the TGI in the test on NCI-H226 lung, with LOX IMVI melanoma, with CAKI-1 renal, with SNB-75 CNS, in the test on SW-620 colon and with ACHN renal was more than 100 µM each time.

Turning to `COc1cc(C2C(C(=O)O)=C(CO)Oc3cc4c(cc32)OCO4)cc(OC)c1O` (stereo not given), the total growth inhibition concentration (TGI) in the test on LOX IMVI melanoma, in the test on CAKI-1 renal, with SNB-75 CNS, with SW-620 colon and in the test on ACHN renal was more than 100 µM in each case.

With `COc1ccc(/C=C2\C(=O)N(C3OC(COC(C)=O)C(OC(C)=O)C(OC(C)=O)C3OC(C)=O)c3ccccc3N=C2N)cc1` (stereo not given), the total growth inhibition concentration (TGI) in the test on LOX IMVI melanoma was 89.4 µM; with PC-3 prostate, 83.3 µM; with BT-549 breast, 71.6 µM; in the test with HS 578T breast, more than 100 µM; in the test with CAKI-1 renal, more than 100 µM; in the test on SNB-75 CNS, 54 µM. Also, the total growth inhibition concentration (TGI) in the test with MDA-MB-231 breast, in the test with SW-620 colon and in the test with ACHN renal was more than 100 µM each time.

As for `C[C@]12CC[C@@H]3c4ccc(OP(=O)(O)O)cc4CC[C@H]3[C@@H]1CCC2=O`, the total growth inhibition concentration (TGI) with LOX IMVI melanoma, in the test on PC-3 prostate, in the test with BT-549 breast, in the test on HS 578T breast, in the test with CAKI-1 renal and in the test with SNB-75 CNS was more than 100 µM throughout. In addition, the TGI in the test on MDA-MB-231 breast, with SW-620 colon and in the test with ACHN renal was more than 100 µM in each case.

For the compound `CC[C@H]1C=CCC[C@@]2(C[C@@H]3CC[C@@H]4[C@H](C(=O)OCCCCCCCCCCCCCCCC(=O)O)[C@]5(CCC[C@@H](C)O5)NC(=[N+]34)N2)O1`, the TGI in the test with NCI-H226 lung turned out to be 3.69 µM; with LOX IMVI melanoma, 0.284 µM; in the test on PC-3 prostate, 1.9 µM; with BT-549 breast it was 6.9 µM; in the test on HS 578T breast, 2.13 µM; in the test on CAKI-1 renal, 3.47 µM. The total growth inhibition concentration (TGI) with MDA-MB-231 breast came out at 9.09 µM; in the test with SW-620 colon, 6.37 µM; with ACHN renal, 1.89 µM.

In the case of `CN(C)CC(=O)Nc1ccc(Cn2nnc3c2C(=O)c2nnn(Cc4ccc(NC(=O)CN(C)C)cc4)c2C3=O)cc1`, the GI50 in the test with NCI-H226 lung is 0.209 µM; in the test with PC-3 prostate it was 0.253 µM; in the test with HS 578T breast it was 0.337 µM; with CAKI-1 renal, 2.59 µM; with SNB-75 CNS, 0.172 µM; with ACHN renal, 0.335 µM. Moreover, the TGI in the test with NCI-H226 lung was 0.444 µM; with PC-3 prostate it was 0.825 µM; in the test on HS 578T breast, 2.06 µM; in the test on CAKI-1 renal, more than 100 µM; in the test with SNB-75 CNS it was 0.342 µM; in the test on ACHN renal it was 1.23 µM.

As to `ONc1ncnc2nc[nH]c12`, the TGI with NCI-H226 lung, with CAKI-1 renal, in the test with SNB-75 CNS, with SW-620 colon and with ACHN renal was more than 100 µM throughout.

For `CCCc1[nH]c(SCCCCCCCCSc2nc(-c3ccc(F)cc3)c(CCC)[nH]2)nc1-c1ccc(F)cc1`, the TGI was more than 100 µM in the test on LOX IMVI melanoma, 8.5 µM in the test with SNB-75 CNS, more than 100 µM in the test on SW-620 colon and more than 100 µM in the test on ACHN renal.

On to `COc1ccc2nc(-c3ccc(-c4noc(-c5cc(OC)c(OC)c(OC)c5)n4)cc3)[nH]c2c1`, for which the GI50 in the test on NCI-H226 lung was 22.7 µM; in the test on LOX IMVI melanoma, 13.3 µM; in the test with PC-3 prostate, 20.5 µM; with HS 578T breast it was 9.49 µM; in the test on CAKI-1 renal, 23.4 µM; in the test with SNB-75 CNS, 12.5 µM. In addition, the figures for the GI50 in the test on MDA-MB-231 breast, in the test on SW-620 colon and in the test with ACHN renal were 2.65 µM, 5.89 µM and 28.2 µM, respectively. Further, the concentration for total growth inhibition (TGI) was 81.4 µM in the test with NCI-H226 lung; 34.6 µM in the test with LOX IMVI melanoma; more than 100 µM in the test with PC-3 prostate; 55.7 µM with HS 578T breast; 54.9 µM in the test with CAKI-1 renal; 27.4 µM with SNB-75 CNS. Besides, the TGI with MDA-MB-231 breast was 13.9 µM; in the test on SW-620 colon, 56.5 µM; in the test on ACHN renal it was more than 100 µM.

As for `Cn1c(=O)c2c(nc(-n3nc(-c4ccc(Cl)cc4)cc3N)n2C)n(C)c1=O`, the TGI with NCI-H226 lung, in the test on PC-3 prostate, with BT-549 breast, with HS 578T breast, with CAKI-1 renal and with MDA-MB-231 breast was more than 100 µM each time. Further, the concentration for total growth inhibition (TGI) in the test with ACHN renal was more than 100 µM.

As for `CC1CNc2ccccc2N=C1NN` (stereo not given), the total growth inhibition concentration (TGI) with NCI-H226 lung, with LOX IMVI melanoma, in the test on PC-3 prostate, with BT-549 breast, in the test with HS 578T breast and in the test with CAKI-1 renal was more than 100 µM each time. Further, the TGI in the test with MDA-MB-231 breast, in the test with SW-620 colon and with ACHN renal was more than 100 µM each time.

With `Cc1cccc2nc3c(C(=O)NCCN(C)C)cccc3cc12`, the concentration for total growth inhibition (TGI) in the test with NCI-H226 lung was 4.65 µM; with LOX IMVI melanoma it was 4.76 µM; in the test on CAKI-1 renal, 8.49 µM; with SNB-75 CNS it was 6.75 µM; with SW-620 colon it was 4.49 µM.

In the case of `CNC(=O)OC(C)CN1c2ccccc2Sc2ccc(Cl)cc21` (stereo not given), the total growth inhibition concentration (TGI) with NCI-H226 lung, with LOX IMVI melanoma, in the test on PC-3 prostate, in the test on HS 578T breast, in the test on CAKI-1 renal and with SNB-75 CNS was more than 10 µM each time. Also, the TGI in the test on MDA-MB-231 breast, with SW-620 colon and in the test on ACHN renal was more than 10 µM in each case.

Turning to `O=C(N/N=C(/c1ccccc1)C(F)(F)F)c1ccncc1`, the TGI in the test with NCI-H226 lung, in the test on PC-3 prostate, with BT-549 breast, with HS 578T breast, in the test on CAKI-1 renal and in the test on SNB-75 CNS was more than 100 µM throughout.

For the origin of these results see PubChem BioAssay (NCI).
